Results on one compound are retold here after ChEMBL document CHEMBL5518193, “Discovery of N-alkyl-N-benzyl thiazoles as novel TRPC antagonists for the treatment of glioblastoma multiforme” (Eur J Med Chem, 2024).

Assay [1] concerns the target T1, Short transient receptor potential channel 6 (Homo sapiens, UniProt Q9Y210).
T1 sequence (Q9Y210 whole entry): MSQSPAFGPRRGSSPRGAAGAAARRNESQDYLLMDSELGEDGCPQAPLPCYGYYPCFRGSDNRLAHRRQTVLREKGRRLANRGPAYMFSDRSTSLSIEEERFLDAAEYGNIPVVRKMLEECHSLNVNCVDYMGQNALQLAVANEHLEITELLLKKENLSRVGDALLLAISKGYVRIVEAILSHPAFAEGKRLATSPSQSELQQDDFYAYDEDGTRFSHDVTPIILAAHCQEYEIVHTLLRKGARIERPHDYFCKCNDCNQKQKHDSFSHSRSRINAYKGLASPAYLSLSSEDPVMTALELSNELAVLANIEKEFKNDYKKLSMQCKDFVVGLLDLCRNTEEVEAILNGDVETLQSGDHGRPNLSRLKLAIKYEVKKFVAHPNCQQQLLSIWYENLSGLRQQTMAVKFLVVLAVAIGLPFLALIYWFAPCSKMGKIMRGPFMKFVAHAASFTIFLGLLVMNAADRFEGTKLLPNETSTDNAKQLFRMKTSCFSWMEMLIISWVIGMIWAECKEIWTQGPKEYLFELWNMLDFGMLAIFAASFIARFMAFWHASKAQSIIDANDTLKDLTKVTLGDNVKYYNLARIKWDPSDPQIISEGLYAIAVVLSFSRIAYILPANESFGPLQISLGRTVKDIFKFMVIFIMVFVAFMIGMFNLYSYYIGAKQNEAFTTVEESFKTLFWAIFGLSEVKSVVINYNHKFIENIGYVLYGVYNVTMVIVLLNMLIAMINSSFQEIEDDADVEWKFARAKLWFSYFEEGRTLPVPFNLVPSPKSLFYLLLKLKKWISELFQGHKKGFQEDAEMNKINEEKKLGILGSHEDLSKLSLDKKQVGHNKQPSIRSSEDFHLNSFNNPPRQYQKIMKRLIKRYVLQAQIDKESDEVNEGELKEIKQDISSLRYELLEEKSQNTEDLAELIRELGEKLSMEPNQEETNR
As to the kind of experiment: Antagonist activity at TRPC6 (unknown origin) assessed as inhibition of channel activity.

Assay [2] has as its target T2, Short transient receptor potential channel 5 (Homo sapiens, UniProt Q9UL62).
T2 sequence (Q9UL62 whole entry): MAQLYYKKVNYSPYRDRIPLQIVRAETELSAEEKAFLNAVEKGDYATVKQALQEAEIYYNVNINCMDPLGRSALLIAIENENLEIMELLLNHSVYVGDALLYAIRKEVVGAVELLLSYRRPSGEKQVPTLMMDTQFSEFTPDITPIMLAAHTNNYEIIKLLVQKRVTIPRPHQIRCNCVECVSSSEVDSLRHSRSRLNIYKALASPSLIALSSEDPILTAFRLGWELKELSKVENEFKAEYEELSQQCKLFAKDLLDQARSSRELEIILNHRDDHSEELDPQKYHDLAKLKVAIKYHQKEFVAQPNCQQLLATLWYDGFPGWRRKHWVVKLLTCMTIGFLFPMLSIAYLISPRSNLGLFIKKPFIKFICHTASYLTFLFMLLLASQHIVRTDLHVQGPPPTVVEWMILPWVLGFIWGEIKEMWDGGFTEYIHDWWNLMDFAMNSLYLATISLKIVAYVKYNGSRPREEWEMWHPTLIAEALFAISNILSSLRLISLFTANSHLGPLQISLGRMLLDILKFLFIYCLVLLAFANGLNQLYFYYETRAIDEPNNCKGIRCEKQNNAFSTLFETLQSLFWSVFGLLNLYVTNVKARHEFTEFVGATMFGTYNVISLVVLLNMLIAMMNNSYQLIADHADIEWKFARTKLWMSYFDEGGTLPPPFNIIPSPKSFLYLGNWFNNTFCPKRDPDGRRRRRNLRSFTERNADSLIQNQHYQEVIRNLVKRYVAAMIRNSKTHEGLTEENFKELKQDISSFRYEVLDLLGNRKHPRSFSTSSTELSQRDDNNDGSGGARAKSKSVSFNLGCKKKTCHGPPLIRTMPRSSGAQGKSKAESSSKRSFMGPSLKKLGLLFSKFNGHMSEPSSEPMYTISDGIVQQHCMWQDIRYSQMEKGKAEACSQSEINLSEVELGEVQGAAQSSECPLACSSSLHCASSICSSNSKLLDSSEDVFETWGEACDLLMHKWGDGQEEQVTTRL
The assay is described as follows: Antagonist activity at TRPC5 (unknown origin) assessed as inhibition of channel activity.

Structures are written as SMILES.

Usually IC50 stands for the concentration at which inhibition is half-maximal. With `O=C1O/C(=C/Br)CCC1c1cccc2ccccc12` (configuration not stated) [BROMOENOL LACTONE], the IC50 was 7.2 µM in assay [1] and 10.6 µM in assay [2].
